Tests used:
[1] = tested on: Wobbler mice; experiment: Forelimb grip strength in Wobbler mice; type: in vivo, mouse; settings: 10 mg/kg orally, 4 weeks, vs control group (FIG. 2)
Text: (§1) Wobbler mice (Ikeda K. et al., Ann. Neurol. vol. 34, p304, 1993; Mitsumoto H. et al., Ann. Neurol. vol. 36, pp142 to 148, 1994; Mitsumoto H. et al., Science, vol. 265, pp1107 to 1110, 1994) were used.
At 3 to 4 weeks old, with the development of the symptom of body tremors, Wobbler mice were diagnosed with the onset of the disease. Immediately after being diagnosed to have the beginnings of the disease, the mice were orally administered with the drug of the present invention (3-methyl-1-phenyl-2-pirazoline-5-on; also referred to as MCI-186 in the drawings) (10 mg/kg), and the mice of a control group were administered with vehicles, by a blind test continually for 4 weeks. […]
The grip strength of the forelimb was measured (Ikeda et al., Neuromusc. Disord., 5, (1995), 383–390; K. Ikeda et al., J. Neurol. Sci., 160, (1998) 9–15; K. Ikeda et al., Neurosci. Lett., 250 (1998) 9–12; K. Ikeda et al., Muscle Nerve, 18 (1995) 1344–1347; K. Ikeda et al., Neurol. Res., 17 (1995) 445–448; K. Ikeda et al., Ann. Neurol., 37 (1995) 505–511; K. Ikeda et al., Brain Res., 726 (1996) 91–97; H. Mitsumoto et al., Ann. Neurol., 36 (1994) 142–148; and H. Mitsumoto et al., Science, 265 (1994) 1107–1110). […]
The scale of the degree of forelimb deformity was analyzed by the non-parametric Wilcoxon signed rank-sum test. […]

[2] = National Cancer Institute Report, 89, 1978; cited from earlier work
[3] = tested on: mouse; settings: intraabdominal administration; cited from earlier work
[4] = tested on: Wobbler mice; experiment: Weight and morphology of right brachial biceps muscle in Wobbler mice; type: in vivo, mouse; settings: 10 mg/kg orally, 4 weeks
Text: as §1
(§2) At 3 to 4 weeks old, with the development of the symptom of body tremors, Wobbler mice were diagnosed with the onset of the disease. Immediately after being diagnosed to have the beginnings of the disease, the mice were orally administered with the drug of the present invention (3-methyl-1-phenyl-2-pirazoline-5-on; also referred to as MCI-186 in the drawings) (10 mg/kg), and the mice of a control group were administered with vehicles, by a blind test continually for 4 weeks. The administration of the drug was completed at 7 to 8 weeks old after birth, and the test was conducted with n=10 for each test group.
After the end of drug administration, Wobbler mice (n=10 per group) were ether anesthetized, and then the right brachial biceps muscles were excised under dissecting microscope. The excised biceps muscles were correctly measured, and then frozen. […]
(§3) The scale of the degree of forelimb deformity was analyzed by the non-parametric Wilcoxon signed rank-sum test. Muscle strength, weight of biceps muscle, mean diameter of muscle fibers and number of motor neurons were statistically analyzed by unpaired Student's t-test. […]

[5] = tested on: Wobbler mice; experiment: Forelimb deformity grading in Wobbler mice; type: in vivo, mouse; settings: 10 mg/kg orally, 4 weeks, vs control group (FIG. 1)
Text: as §1, §2
The degree of forelimb deformity was classified into four grades: 1 (paw atrophy), 2 (curled digits), 3 (curled wrists), and 4 (forelimb flexion to chest), and then evaluated. The progress from 1 to 4 means that the symptom became worse.
The scale of the degree of forelimb deformity was analyzed by the non-parametric Wilcoxon signed rank-sum test. Muscle strength, weight of biceps muscle, mean diameter of muscle fibers and number of motor neurons were statistically analyzed by unpaired Student's t-test. In all tests, the significance level of 5% was set for both sides.

[6] = tested on: Wobbler mice; experiment: Number of spinal motor neurons in Wobbler mice; type: in vivo, mouse; settings: 10 mg/kg orally, 4 weeks, cervical spinal cord C5-6, vs control group (FIG. 4)
Text: as §1, §2
Wobbler mice (n=10 per group) that had been used for morphological study on the right brachial biceps muscles were perfused via an intracardiac catheter with phosphate buffered saline, and then 4% paraformaldehyde/1% glutaraldehyde/0.1 M sodium phosphate buffer (pH 7.4). […]
as §3

[7] = tested on: ALS; settings: some reported test results; cited from earlier work
[8] = tested on: ALS patients; settings: administered intraspinally to ALS patients; cited from earlier work

Compound: CC1=NN(c2ccccc2)C(=O)C1 [3-methyl-1-phenyl-2-pirazoline-5-on]
- muscle strength of the forelimb (grip strength) [1]: the decrease in muscle strength was delayed
- carcinogenicity [2]: noncarcinogenicity
- LD50 [3]: 2012 mg/kg
- mean diameter of muscle fibers (mean±SEM) ([4]; right brachial biceps, P<0.01 vs control 16.8±0.6 μm): 20.3±0.8 μm
- weight of the right brachial biceps muscle ([4]; vs control group (FIG. 3)): significantly increased
- degree of forelimb deformity (Grades 1 to 4) [5]: the progress of muscle deformity was delayed
- number of spinal motor neurons [6]: increased

Compound: Nc1nc2ccc(OC(F)(F)F)cc2s1 [riluzole]
- effectiveness against ALS [7]: effectiveness against ALS could not be confirmed

Compound: human recombinant Cu/Zn SOD: human recombinant Cu/Zn superoxide dismutase administered intraspinally to ALS patients
- therapeutic effect in ALS patients [8]: effective therapeutic effects were not obtained

— patent US6933310B1, “Therapeutic agent for amyotrophic lateral sclerosis (ALS)” (Mitsubishi Pharma Corporation, priority 2000, dated 2005)
